From ChEMBL document CHEMBL3739354, “Nitrofuranyl Methyl Piperazines as New Anti-TB Agents: Identification, Validation, Medicinal Chemistry, and PK Studies” (ACS Med Chem Lett, 2015)
Values after ≈ are worked out from the molar mass of the structure shown.

Tests used:
[1] = system: Mycobacterium tuberculosis; experiment: microbe, parasite or virus in culture; details: 168 h
[2] = system: Mycobacterium tuberculosis; experiment: microbe, parasite or virus in culture; details: 168 h; remark: listed apart in the source

Structure (SMILES)	MIC90 [1] [µM]	MIC90 [2] [µM]
O=[N+]([O-])c1ccc(CN2CCN(c3ccc(F)cc3)CC2)o1	6.55 (≈ 2 µg/mL)	–
O=[N+]([O-])c1ccc(CN2CCN(c3ccc(Cl)cc3)CC2)o1	0.072 (≈ 0.0232 µg/mL)	0.029 (≈ 0.00933 µg/mL)
Cc1cccc(N2CCN(Cc3ccc([N+](=O)[O-])o3)CC2)c1C	25.3 (≈ 7.98 µg/mL)	–
O=[N+]([O-])c1ccc(CN2CCN(c3ccccc3)CC2)o1	13.9 (≈ 4 µg/mL)	–
O=[N+]([O-])c1ccc(CN2CCN(S(=O)(=O)c3ccccc3)CC2)o1	2.13 (≈ 0.748 µg/mL)	> 22.7
COc1cccc(N2CCN(Cc3ccc([N+](=O)[O-])o3)CC2)c1	0.37 (≈ 0.117 µg/mL)	0.09 (≈ 0.0286 µg/mL)
O=[N+]([O-])c1ccc(CN2CCN(S(=O)(=O)c3ccc(F)cc3)CC2)o1	1.35 (≈ 0.499 µg/mL)	1 (≈ 0.369 µg/mL)
Cc1ccc(S(=O)(=O)N2CCN(Cc3ccc([N+](=O)[O-])o3)CC2)cc1	0.68 (≈ 0.248 µg/mL)	14.6 (≈ 5.33 µg/mL)
O=[N+]([O-])c1ccc(CN2CCN(c3cccc(Cl)c3)CC2)o1	0.37 (≈ 0.119 µg/mL)	–
O=[N+]([O-])c1ccc(CN2CCN(c3ccc(N4CCOCC4)cc3)CC2)o1	0.08 (≈ 0.0298 µg/mL)	0.08 (≈ 0.0298 µg/mL)
CC(C)(C)c1ccc(N2CCN(Cc3ccc([N+](=O)[O-])o3)CC2)cc1	1.32 (≈ 0.453 µg/mL)	> 25.2
O=[N+]([O-])c1ccc(CN2CCN(c3ccccc3F)CC2)o1	13.1 (≈ 4 µg/mL)	–
O=[N+]([O-])c1ccc(CN2CCN(c3cccc(C(F)(F)F)c3)CC2)o1	5.63 (≈ 2 µg/mL)	–
O=[N+]([O-])c1ccc(S(=O)(=O)N2CCN(Cc3ccc([N+](=O)[O-])o3)CC2)cc1	0.63 (≈ 0.25 µg/mL)	4.19 (≈ 1.66 µg/mL)
N#Cc1cccc(N2CCN(Cc3ccc([N+](=O)[O-])o3)CC2)c1	0.19 (≈ 0.0593 µg/mL)	0.06 (≈ 0.0187 µg/mL)
CC(C)(C)OC(=O)N1CCN(Cc2ccc([N+](=O)[O-])o2)CC1	0.32 (≈ 0.0996 µg/mL)	0.12 (≈ 0.0374 µg/mL)
COc1c(N2CCNC(C)C2)c(F)cc2c(=O)c(C(=O)O)cn(C3CC3)c12 (stereo not given) [GATIFLOXACIN]	2.66 (≈ 0.999 µg/mL)	1.33 (≈ 0.499 µg/mL)
CO[C@H]1/C=C/O[C@@]2(C)Oc3c(C)c(O)c4c(O)c(c(/C=N/N5CCN(C)CC5)c(O)c4c3C2=O)NC(=O)/C(C)=C\C=C\[C@H](C)[C@H](O)[C@@H](C)[C@@H](O)[C@@H](C)[C@H](OC(C)=O)[C@@H]1C [RIFAMPIN]	311 (≈ 256 µg/mL)	156 (≈ 128 µg/mL)
